In general, melting point refers to the temperature of the solid-liquid transition.

Seven compounds from patent US8178677B2, “Hydroxyalkyl substituted imidazoquinolines” (3M Innovative Properties Company, priority 2005, dated 2012) can be followed below.

Like-named read-outs stand apart in the source and are kept apart here.

Data set [1] deals with tumor necrosis factor (α) (TNF-α) induction in human peripheral blood mononuclear cells (PBMC). The experiment in a line: Cytokine induction in human cells (PBMC): TNF-α secreted into culture media, ORIGEN M-Series immunoassay. The class given is cell-based. The conditions noted are these: for Maximal Response (pg/mL) TNF: background-subtracted; for minimal effective concentration: Homo sapiens, PBMC, read-out: Minimum Effective Concentration (μM) TNF. The text has this:
(§1) Cytokine Induction in Human Cells
(§2) An in vitro human blood cell system is used to assess cytokine induction. Activity is based on the measurement of interferon (α) and tumor necrosis factor (α) (IFN-α and TNF-α, respectively) secreted into culture media as described by Testerman et. al. in “Cytokine Induction by the Immunomodulators Imiquimod and S-27609”, Journal of Leukocyte Biology, 58, 365-372 (September, 1995).
(§3) Blood Cell Preparation for Culture
(§4) Whole blood from healthy human donors is collected by venipuncture into vacutainer tubes or syringes containing EDTA. Peripheral blood mononuclear cells (PBMC) are separated from whole blood by density gradient centrifugation using HISTOPAQUE-1077 (Sigma, St. Louis, Mo.) or Ficoll-Paque Plus (Amersham Biosciences Piscataway, N.J.). Blood is diluted 1:1 with Dulbecco's Phosphate Buffered Saline (DPBS) or Hank's Balanced Salts Solution (HBSS). Alternately, whole blood is placed in Accuspin (Sigma) or LeucoSep (Greiner Bio-One, Inc., Longwood, Fla.) centrifuge frit tubes containing density gradient medium. The PBMC layer is collected and washed twice with DPBS or HBSS and re-suspended at 4×10^6 cells/mL in RPMI complete. The PBMC suspension is added to 96 well flat bottom sterile tissue culture plates containing an equal volume of RPMI complete media containing test compound.
(§5) The compounds are solubilized in dimethyl sulfoxide (DMSO). The DMSO concentration should not exceed a final concentration of 1% for addition to the culture wells. The compounds are generally tested at concentrations ranging from 30-0.014 μM. Controls include cell samples with media only, cell samples with DMSO only (no compound), and cell samples with reference compound.
(§6) The solution of test compound is added at 60 μM to the first well containing RPMI complete and serial 3 fold dilutions are made in the wells. The PBMC suspension is then added to the wells in an equal volume, bringing the test compound concentrations to the desired range (usually 30-0.014 μM). The final concentration of PBMC suspension is 2×10^6 cells/mL. The plates are covered with sterile plastic lids, mixed gently and then incubated for 18 to 24 hours at 37° C. in a 5% carbon dioxide atmosphere.
(§7) Following incubation the plates are centrifuged for 10 minutes at 1000 rpm (approximately 200×g) at 4° C. The cell-free culture supernatant is removed and transferred to sterile polypropylene tubes. Samples are maintained at −30 to −70° C. until analysis. The samples are analyzed for IFN-α by ELISA and for TNF-α by IGEN/BioVeris Assay.
(§8) Interferon (α) and Tumor Necrosis Factor (α) Analysis
The TNF-α concentration is determined by ORIGEN M-Series Immunoassay and read on an IGEN M-8 analyzer from BioVeris Corporation, formerly known as IGEN International, Gaithersburg, Md. The immunoassay uses a human TNF-α capture and detection antibody pair (Catalog Numbers AHC3419 and AHC3712) from Biosource International, Camarillo, Calif. Results are expressed in pg/mL.
(§9) In total, the data output of the assay consists of concentration values of TNF-α and IFN-α (y-axis) as a function of compound concentration (x-axis).
Analysis of the data has two steps. First, the greater of the mean DMSO (DMSO control wells) or the experimental background (usually 20 pg/mL for IFN-α and 40 pg/mL for TNF-α) is subtracted from each reading. If any negative values result from background subtraction, the reading is reported as “*”, and is noted as not reliably detectable. In subsequent calculations and statistics, “*”, is treated as a zero. Second, all background subtracted values are multiplied by a single adjustment ratio to decrease experiment to experiment variability. The adjustment ratio is the area of the reference compound in the new experiment divided by the expected area of the reference compound based on the past 61 experiments (unadjusted readings). […]

The subject of data set [2] is interferon (α) (IFN-α) induction in human peripheral blood mononuclear cells (PBMC). The experiment in a line: Cytokine induction in human cells (PBMC): IFN-α secreted into culture media, ELISA. It counts as cell-based. The following applies: read-out: Minimum Effective Concentration (μM) IFN.
From the text: as §1, §2, §3, §4, §5, §6, §7, §8
IFN-α concentration is determined with a human multi-subtype calorimetric sandwich ELISA (Catalog Number 41105) from PBL Biomedical Laboratories, Piscataway, N.J. Results are expressed in pg/mL.
as §9
Analysis of the data has two steps. First, the greater of the mean DMSO (DMSO control wells) or the experimental background (usually 20 pg/mL for IFN-α and 40 pg/mL for TNF-α) is subtracted from each reading. If any negative values result from background subtraction, the reading is reported as “*”, and is noted as not reliably detectable. In subsequent calculations and statistics, “*”, is treated as a zero. Second, all background subtracted values are multiplied by a single adjustment ratio to decrease experiment to experiment variability. The adjustment ratio is the area of the reference compound in the new experiment divided by the expected area of the reference compound based on the past 61 experiments (unadjusted readings). […] The reference compound used is 2-[4-amino-2-ethoxymethyl-6,7,8,9-tetrahydro-α,α-dimethyl-1H-imidazo[4,5-c]quinolin-1-yl]ethanol hydrate (U.S. Pat. No. 5,352,784; Example 91) and the expected area is the sum of the median dose values from the past 61 experiments. […]

Setting [3] is: 18 to 24 hours incubation, tested 30-0.014 μM, lowest concentration inducing response over 40 pg/mL TNF-α, median of # experiments.
Where [4] appears, read: lowest tested concentration inducing TNF-α over 40 pg/mL, median where more than one experiment.
[5] abbreviates: maximal response in dose response curve, reference-adjusted, median where more than one experiment, * = below background of 40 pg/mL.
[6] abbreviates: 18 to 24 hours incubation, tested 30-0.014 μM, lowest concentration inducing response over 20 pg/mL IFN-α, median of # experiments.
Setting [7] is: lowest tested concentration inducing IFN-α over 20 pg/mL, median where more than one experiment.

The compound `CC(C)(Cn1c(CCO)nc2c(N)nc3ccccc3c21)NS(C)(=O)=O` [Example 6, N-{2-[4-Amino-2-(2-hydroxyethyl)-1H-imidazo[4,5-c]quinolin-1-yl]-1,1-dimethylethyl}methanesulfonamide] had a melting point of 209 to 212 °C. In addition, the “Maximal Response (pg/mL) TNF” value in data set [1] (18 to 24 hours incubation, reference-adjusted maximal response of dose response curve, median of # experiments) is on record as “* (TNF below experimental background of 40 pg/mL.)”. In addition, the minimal effective concentration in data set [1] (setting [3]) is over 30 µM. For the same compound, the minimal effective concentration in data set [1] (setting [4]) is 30 µM. For the same compound, in data set [1] (setting [5]), the “Maximal Response (pg/mL) TNF” value is reported as “* (TNF below experimental background of 40 pg/mL.)”. Moreover, in data set [2] (setting [6]), the minimal effective concentration was 1.11 µM. For the same compound, the minimal effective concentration in data set [2] (setting [7]) was found to be 1.11 µM.

For the compound `CC(C)(Cn1c(CO)nc2c(N)nc3ccccc3c21)NS(C)(=O)=O` [Example 7, N-[2-(4-Amino-2-hydroxymethyl-1H-imidazo[4,5-c]quinolin-1-yl)-1,1-dimethylethyl]methanesulfonamide], the melting point lay within 262 to 265 °C. The minimal effective concentration in data set [1] (setting [3]) was 30 µM. Further, the minimal effective concentration in data set [1] (setting [4]) was 30 µM. Further, the minimal effective concentration in data set [2] (setting [6]) was 3.33 µM. Moreover, the minimal effective concentration in data set [2] (setting [7]) was determined as 3.33 µM.

In the case of `CC(C)C(=O)NCCCn1c(CCO)nc2c(N)nc3ccccc3c21` [Example 141, N-{3-[4-Amino-2-(2-hydroxyethyl)-1H-imidazo[4,5-c]quinolin-1-yl]propyl}-2-methylpropionamide], the melting point was 196 to 198 °C. The minimal effective concentration in data set [1] (setting [4]) was determined as 30 µM. Moreover, the minimal effective concentration in data set [2] (setting [7]) was determined as 0.04 µM.

`CC(C)NC(=O)NC(C)(C)Cn1c(CO)nc2c(N)nc3ccccc3c21` [Example 142, 1-[2-(4-Amino-2-hydroxymethyl-1H-imidazo[4,5-c]quinolin-1-yl)-1,1-dimethylethyl]-3-(1-methylethyl)urea]: the melting point is 196 to 199 °C. Besides, in data set [1] (setting [4]), the minimal effective concentration is over 30 µM. Also, in data set [1] (setting [5]), the “Maximal Response (pg/mL) TNF” value is on record as “* (TNF below experimental background of 40 pg/mL.)”. For the same compound, the minimal effective concentration in data set [2] (setting [7]) came out at 1.11 µM.

For the compound `CC(C)(Cn1c(CO)nc2c(N)nc3ccccc3c21)CS(C)(=O)=O` [Example 143, {4-Amino-1-[2,2-dimethyl-3-(methylsulfonyl)propyl]-1H-imidazo[4,5-c]quinolin-2-yl}methanol], the melting point is 230 to 232 °C. Also, the minimal effective concentration in data set [1] (setting [4]) stood at 30 µM. Besides, the minimal effective concentration in data set [2] (setting [7]) came out at 1.11 µM.

For the compound `CC(C)NC(=O)NCCn1c(CO)nc2c(N)nc3ccccc3c21` [Example 144, N-{2-[4-amino-2-(hydroxymethyl)-1H-imidazo[4,5-c]quinolin-1-yl]ethyl}-N′-isopropylurea], the melting point is over 240 °C. Besides, the minimal effective concentration in data set [1] (setting [4]) came out at 3.33 µM. For the same compound, the minimal effective concentration in data set [2] (setting [7]) was 0.37 µM.

For `CS(=O)(=O)NCCCCn1c(CO)nc2c(N)nc3ccccc3c21` [Example 147, N-[4-(4-amino-2-hydroxymethyl-1H-imidazo[4,5-c]quinolin-1-yl)butyl]methanesulfonamide], the melting point lay in the range of 216 to 219 °C. In addition, the minimal effective concentration in data set [1] (setting [4]) is over 30 µM. Besides, the “Maximal Response (pg/mL) TNF” value in data set [1] (setting [5]) was “* (TNF below experimental background of 40 pg/mL.)”. Also, the minimal effective concentration in data set [2] (setting [7]) turned out to be 0.37 µM.
